Data on eight molecules can be found in US10905120B2, “ABA receptor agonists that modulate transpiration” (The Regents of the University of California, priority 2016, dated 2021).

What is called IC50 is the point on the concentration scale where inhibition reaches its midpoint.

One experiment addresses T1, PYL2 (Arabidopsis thaliana, UniProt O80992).
T1 sequence (O80992 1-190): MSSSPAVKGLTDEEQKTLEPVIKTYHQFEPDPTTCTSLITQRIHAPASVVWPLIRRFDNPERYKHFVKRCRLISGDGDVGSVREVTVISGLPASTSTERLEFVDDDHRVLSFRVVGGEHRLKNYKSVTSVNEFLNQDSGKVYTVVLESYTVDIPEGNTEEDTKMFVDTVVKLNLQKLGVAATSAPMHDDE
T1 sequence (Q9CAJ0 23-511 partner): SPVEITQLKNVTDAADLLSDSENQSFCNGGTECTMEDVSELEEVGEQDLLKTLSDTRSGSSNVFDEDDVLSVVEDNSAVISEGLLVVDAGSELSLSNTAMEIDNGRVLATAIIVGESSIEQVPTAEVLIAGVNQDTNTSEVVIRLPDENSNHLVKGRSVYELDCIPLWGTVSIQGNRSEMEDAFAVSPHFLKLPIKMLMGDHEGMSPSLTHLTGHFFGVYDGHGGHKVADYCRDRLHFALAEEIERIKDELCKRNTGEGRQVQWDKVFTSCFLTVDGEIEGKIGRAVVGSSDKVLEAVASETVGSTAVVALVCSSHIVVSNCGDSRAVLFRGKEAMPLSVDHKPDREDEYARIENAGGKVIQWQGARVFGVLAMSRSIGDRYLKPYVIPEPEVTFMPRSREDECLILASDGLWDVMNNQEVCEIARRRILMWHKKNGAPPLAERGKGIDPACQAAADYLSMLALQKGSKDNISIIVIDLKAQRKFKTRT
The experiment is described as follows: PP2C inhibition assay, recombinant PYL2 receptor. Format: biochemical. Here is the method: (§1) Reactions were started by adding 40 μL of a reaction solution containing 25 mM 4-nitrophenyl phosphate in assay buffer, after which absorbance measurements were immediately collected using a 405 nm on Wallac plate reader. Reactions contained 100 nM PP2C and 200 nM PYR/PYL proteins. […] The dose response data was fitted to a log (inhibitor) vs response-(variable slope) model using non-linear regression to infer the IC50 values using Graph Pad Prism 6.0.

For another experiment, the target named is T2, PYR1 (Arabidopsis thaliana, UniProt O49686).
T2 sequence (O49686 1-191): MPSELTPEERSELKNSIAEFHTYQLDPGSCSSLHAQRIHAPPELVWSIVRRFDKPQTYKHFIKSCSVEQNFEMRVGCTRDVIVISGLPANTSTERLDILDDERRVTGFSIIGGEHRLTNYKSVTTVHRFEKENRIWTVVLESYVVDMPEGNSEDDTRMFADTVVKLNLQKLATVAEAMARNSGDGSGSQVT
T2 sequence (Q9CAJ0 23-511 partner): T1 sequence (Q9CAJ0 23-511 partner)
As to the kind of experiment: PP2C inhibition assay, recombinant PYR1 receptor. It is filed as biochemical. Here is the method: as §1

For experiment [1], the target named is T3, PYL2^V114I mutant (Arabidopsis thaliana, UniProt O80992, V114I).
T3 construct: made in house
T3 sequence (O80992 whole entry V114I, one chain of several): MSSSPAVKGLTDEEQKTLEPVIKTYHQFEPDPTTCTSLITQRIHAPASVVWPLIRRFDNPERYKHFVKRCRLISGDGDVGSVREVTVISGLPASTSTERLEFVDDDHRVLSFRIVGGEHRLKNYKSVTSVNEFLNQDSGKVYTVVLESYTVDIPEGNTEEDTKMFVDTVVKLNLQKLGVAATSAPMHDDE
The note with it: cited from earlier work.

For experiment [2], the target named is T4, PYR1^I110V mutant (Arabidopsis thaliana, UniProt O49686, I110V).
T4 construct: made in house
T4 sequence (O49686 whole entry I110V, one chain of several): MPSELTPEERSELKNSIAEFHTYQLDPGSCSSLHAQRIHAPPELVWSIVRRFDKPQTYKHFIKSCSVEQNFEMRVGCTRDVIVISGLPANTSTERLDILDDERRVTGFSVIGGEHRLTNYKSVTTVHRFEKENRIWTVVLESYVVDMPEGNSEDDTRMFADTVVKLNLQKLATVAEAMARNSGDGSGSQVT
The note with it: cited from earlier work.

Experiment [3] concerns Arabidopsis thaliana seeds. As to the kind of experiment: Germination assay. Format: in vivo. To be noted: Minimal Inhibitory Concentration, 3 d in darkness after 4 d stratification. Here is the method: Germination experiments were performed with Arabidopsis thaliana seeds of wildtype Col0, Ler, or mutant backgrounds.
Seeds were sterilized by 30 sec incubation in 70% ethanol solution followed by a 5 min […] (while vigorously shaking) in a bleach-Tween solution. Afterwards, the sterilizing solutions were removed, and five washes were performed with sterile distilled water. To enhance complete removal of the solutions between the different steps, short centrifuge spins were performed. Finally, the now surface-sterilized seeds were re-suspended in an aseptic 0.1% agar solution to simplify distribution over multiwall plates. One drop of the solution contained on average 20-30 seeds.
In the multiwell plates, seeds were plated onto 0.7% agar Murashige amd Skoog (MS) plant growth medium containing one-half MS salts and 0.5% sucrose containing different concentrations of ABA, quinabactin, or the compound of interest. After 4 d of stratification at 4° C., the plates were transferred to a growth chamber in darkness and allowed to germinate for 3 d before germination was evaluated. The results are shown above in Table 1 and FIGS. 3A and 3B.

A further experiment concerns adult Arabidopsis plants. The experiment is described as follows: Thermal imaging assay of sprayed adult plants. It is filed as in vivo. To be noted: sprayed at 50 uM dose on adult Arabidopsis plants; compared with quinabactin and ABA at the same dose. The source says:
Molecules that elicit ABA-like effects in vivo typically close guard cells, which arrests transpirational water loss, resulting in less efficient cooling of the leaf surface and a concomitant increase in leaf surface temperature. Infrared thermography has recently emerged as an attractive, noninvasive technique to evaluate plant leaf surface temperature.
For the adult plants used for thermal imaging, seeds were sterilized as described in Example 3. Afterwards, the seeds were spread onto 0.7% agar MS plant growth medium containing one-half MS salts and 0.5% sucrose. After 4 d of stratification at 4° C., these plates were transferred to a growth chamber in light and allowed to germinate and grow for 7 d. The seedlings then were transferred into soil, and plants of 3-4 wk old were used for thermal imaging. Before thermal imaging, topical spraying of the plants was performed with a water solution containing an active agent (50 μM ABA, quinabactin, or a test compound of interest), 0.5% DMSO, and 0.02% polyalkyleneoxide modified heptamethyltrisiloxane surfactant (Silwet-77). Thermal images were collected just before spraying, 24 h after treatment, and 48 h after treatment. Treated plants were compared to mock-treated plants that had been sprayed with water containing 0.5% DMSO and 0.02% Silwet-77.
Thermal images were collected at 16 h after treatment. Thermal images were quantified using the Flir tools software version 5.2.15161.1001 by measuring the average leaf temperature of 5-6 leaves per plant. Average temperatures were calculated for 10 replicate plants (in 5 pots) per treatment. Statistical comparisons between the treated and the mock-treated plants were performed using pairwise t-tests. In the graphs represented in FIG. 1B, error bars represent the standard error of mean, asterisks symbols indicate statistical significance, and * indicates p≤0.05, ** for p≤0.01, *** for p≤0.001.

The target of experiment [4] is T3, PYL2^V114I mutant. As to the kind of experiment: Phosphatase inhibition assay with PYL2 V114I mutant. Format: biochemical. Here is the method: (§2) Without intending to be bound by theory, subtle changes in the binding pockets of PYR1/PYL2 proteins can dictate the orientation of pyrabactin and contribute towards its selectivity towards PYR1 vs PYL2. […] Cyanabactin's activity was tested with the PYR1^I110V and the reciprocal PYL2^V114I mutants to provide possible insights into its selectivity for PYR1 vs PYL2.
(§3) Recombinant PYR1^I110V and PYL2^V114I proteins were prepared using a previously described protocol previously (Peterson Peterson, F. C. et al., “Structural Basis for Selective Activation of ABA Receptors,” Nat. Struct. Mol. Biol. 2010, 17 (99), 1109-1113) and tested in absorbance based phosphatase inhibition assay using p-nitrophenol phosphate as substrate as previously described.

Experiment [5] concerns the target T4, PYR1^I110V mutant. As to the kind of experiment: Phosphatase inhibition assay with PYR1 I110V mutant. Format: biochemical. The method, then: as §2, §3
[6] abbreviates: recombinant receptor 200 nM, PP2C 100 nM, 4-nitrophenyl phosphate substrate, absorbance 405 nm, read-out: IC50 PYL2.
[7] abbreviates: recombinant receptor 200 nM, PP2C 100 nM, 4-nitrophenyl phosphate substrate, absorbance 405 nm, read-out: IC50 PYR1.
Setting [8] is: recombinant mutant receptor, p-nitrophenol phosphate substrate.

Values after ≈ are worked out from the molar mass of the structure shown. Read-outs that look alike come from different tables or passages of the source.

Consider `CC1=CC(=O)CC(C)(C)[C@@]1(O)/C=C/C(C)=C\C(=O)O` [ABA, Abscisic acid, reference compound], for which the IC50 on PYL2 was 39 ± 2.3 nM; on PYR1, 111 ± 3.8 nM. At PYL2^V114I mutant [1], the “responsiveness of PYL2^V114I mutant as compared to WT PYL2” value is on record as “retained responsiveness”. Also, the “responsiveness of PYR1^I110V mutant as compared to wild-type PYR1” value at PYR1^I110V mutant [2] is on record as “retained responsiveness”. Moreover, the “MIC (μM) Germination” value in experiment [3] was 1 µM (≈ 0.264 µg/mL).
Regarding `CCOc1cc(NS(=O)(=O)Cc2ccc(C)cc2)ccc1C#N` [Ligand Q26, N-(4-Cyano-3-ethoxyphenyl)-1-(4-methylphenyl)methanesulfonamide], in the experiment on adult Arabidopsis plants, the “increase of leaf surface temperature” value was “increase the leaf surface temperature significantly”. For the same molecule, the half-inhibitory concentration (IC50) on PYL2 (setting [6]) amounted to 7460 ± 469 nM; at PYR1 (setting [7]), 112 ± 15 nM. Also, the “MIC (μM) Germination” value in experiment [3] is 10 µM (≈ 3.3 µg/mL).
On to `Cc1ccc(CS(=O)(=O)Nc2ccc(C#N)c(C3CC3)c2)cc1` [Ligand Q27, N-(4-Cyano-3-cyclopropylphenyl)-1-(4-methylphenyl)methanesulfonamide], for which the “fold more active in PYL2^V114I mutant as compared to WT PYL2” value at PYL2^V114I mutant [4] (ratio of IC50s) was found to be 3.3 fold. Moreover, the IC50 on PYL2^V114I mutant [4] (setting [8]) was 981 nM; at PYR1^I110V mutant [5] (setting [8]), 787 nM; on PYL2 (setting [6]) it was 3270 nM; at PYR1 (setting [7]), 87 nM. Further, in the experiment with adult Arabidopsis plants, the “increase of leaf surface temperature” value is “increase the leaf surface temperature significantly”. For the same molecule, the “fold less active in PYR1^I110V mutant as compared to WT PYR1” value on PYR1^I110V mutant [5] (ratio of IC50s) is reported as “approximately 9 fold”. For the same molecule, the “MIC (μM) Germination” value in experiment [3] stood at 5 µM (≈ 1.63 µg/mL).
In the case of `CCc1cc(NS(=O)(=O)Cc2ccc(C)cc2)ccc1C#N` [Ligand Q29, N-(4-Cyano-3-ethylphenyl)-1-(4-methylphenyl)methanesulfonamide], the “increase of leaf surface temperature” value in the experiment with adult Arabidopsis plants is recorded as “to a lesser extent”. The IC50 at PYL2 (setting [6]) was found to be 2700 ± 64 nM; at PYR1 (setting [7]), 48 ± 0.3 nM. Moreover, in experiment [3], the “MIC (μM) Germination” value was 5 µM (≈ 1.57 µg/mL).
For `CCc1cc(NS(=O)(=O)Cc2ccc(C)cc2)cc(C)c1C#N` [Ligand Q30, N-(4-Cyano-3-ethyl-5-methylphenyl)-1-(4-methylphenyl)methanesulfonamide], in that order: “increase the leaf surface temperature significantly”, 969 ± 77 nM, 72 ± 15 nM and 10 µM (≈ 3.28 µg/mL).
Regarding `CCCc1cc(NS(=O)(=O)Cc2ccc(C)cc2)ccc1C#N` [Ligand Q31, N-(4-Cyano-3-propylphenyl)-1-(4-methylphenyl)methanesulfonamide], in the experiment with adult Arabidopsis plants, the “increase of leaf surface temperature” value is “to a lesser extent”. Also, the IC50 at PYL2 (setting [6]) came to 2910 ± 270 nM; at PYR1 (setting [7]), 100 ± 0.4 nM. Further, in experiment [3], the “MIC (μM) Germination” value stood at 10 µM (≈ 3.28 µg/mL).
For `CCCc1cc(NS(=O)(=O)Cc2ccc(C)cc2)cc(C)c1C#N` [Ligand Q32, N-(4-Cyano-3-methyl-5-propylphenyl)-1-(4-methylphenyl)methanesulfonamide], the “increase of leaf surface temperature” value with adult Arabidopsis plants is listed as “to a lesser extent”. Besides, the IC50 was 1610 ± 23 nM at PYL2 (setting [6]) and 220 ± 18 nM on PYR1 (setting [7]). The “MIC (μM) Germination” value in experiment [3] is 10 µM (≈ 3.42 µg/mL).
For the molecule `O=S(=O)(NCc1ccccn1)c1ccc(Br)c2ccccc12` [pyrabactin], on PYL2^V114I mutant [1], the “responsiveness of PYL2^V114I mutant as compared to WT PYL2” value was “gains pyrabactin responsiveness”. In addition, at PYR1^I110V mutant [2], the “responsiveness of PYR1^I110V mutant as compared to wild-type PYR1” value is “dramatically loses pyrabactin responsiveness”.
